In the oligonucleotide strings, read from the 5' end, every base follows the letter of its sugar. An asterisk marks phosphorothioate; unmarked linkages are phosphodiester. Other units and linkages are bracketed, terminal groups are in braces. A string of capitals states the bases alone. e = 2'-O-(2-methoxyethyl) (MOE); [5mC] = 5-methylcytosine
What was measured:
Assay type in all cases: cell-based, human
adipocytes = experiment: Triglyceride accumulation assay in adipocytes
aP2 = aP2 mRNA expression in adipocytes (real-time PCR); conditions: for aP2 mRNA: Table 75
PPARγ = PPARγ mRNA expression in adipocytes (real-time PCR)
Glut4 = Glut4 mRNA expression in adipocytes (real-time PCR)
HSL = HSL mRNA expression in adipocytes (real-time PCR)
[1] = differentiating adipocytes transfected with oligomeric compound, Table 75
[2] = differentiating adipocytes transfected with oligomeric compound
[3] = Table 17, differentiating adipocytes, control = treatment with ISIS 342673
[4] = Table 18, differentiating adipocytes, control = treatment with ISIS 342673

Row | Substance | TG (triglyceride accumulation) (adipocytes; [1]) | aP2 mRNA (aP2; [2]) | PPAR gamma mRNA (PPARγ; [1]) | GLUT4 mRNA (Glut4; [1]) | HSL mRNA (HSL; [1]) | other results
1 | 344613 (ACACCAAUGCCCUAGGGGAUGCG; anti-miR; all 2'-MOE, all phosphorothioate, methylation of C and T or U not given here) [compound 344613] | 47 percentage of untreated control (UTC) | 55 percentage of untreated control (UTC) | 57 percentage of untreated control (UTC) | 38 percentage of untreated control (UTC) | 46 percentage of untreated control (UTC) | –
2 | 344268 (antisense ACACAAAUUCGGUUCUACAGGG; all 2'-MOE, all phosphorothioate, methylation of C and T or U not given here) [compound 344268] | 57 percentage of untreated control (UTC) | 46 percentage of untreated control (UTC) | 53 percentage of untreated control (UTC) | 22 percentage of untreated control (UTC) | 44 percentage of untreated control (UTC) | –
3 | 328132 (antisense eG*eT*eG*eA*eG*eA*eG*eT*eA*eG*e[5mC]*eA*eT*eG*eT*eT*eT*eG*eT*e[5mC]*eT) [compound 328132] | – | – | – | – | – | TG (triglyceride accumulation) (adipocytes; [3]): 114.1 percentage of control; TG (triglyceride accumulation) (adipocytes; [2]): 120 percentage of untreated control (UTC); AP2 mRNA (aP2; [3]): 90.2 percentage of control; AP2 mRNA (aP2; [2]): 81 percentage of untreated control (UTC); PPAR gamma mRNA (PPARγ; [3]): 90.0 percentage of control; PPAR gamma mRNA (PPARγ; [2]): 94 percentage of untreated control (UTC); GLUT4 mRNA (Glut4; [3]): 72.1 percentage of control; GLUT4 mRNA (Glut4; [2]): 67 percentage of untreated control (UTC); HSL mRNA (HSL; [3]): 73.7 percentage of control; HSL mRNA (HSL; [2]): 89 percentage of untreated control (UTC)
4 | 328098 (antisense eG*eA*eG*eA*eA*eT*e[5mC]*eA*eA*eT*eA*eG*eG*eG*e[5mC]*eA*eT*eG*e[5mC]*eA*eA) [compound 328098] | 39 percentage of untreated control (UTC) | 23 percentage of untreated control (UTC) | 54 percentage of untreated control (UTC) | 25 percentage of untreated control (UTC) | 28 percentage of untreated control (UTC) | –
5 | 328131 (antisense eA*eT*eA*eT*eG*eT*e[5mC]*eA*eT*eA*eT*e[5mC]*eA*eA*eA*e[5mC]*eT*e[5mC]*e[5mC]*eT*eA) [compound 328131] | 74 percentage of untreated control (UTC) | 63 percentage of untreated control (UTC) | 55 percentage of untreated control (UTC) | 56 percentage of untreated control (UTC) | 51 percentage of untreated control (UTC) | TG (triglyceride accumulation) (adipocytes; [3]): 89.1 percentage of control; AP2 mRNA (aP2; [3]): 95.4 percentage of control; PPAR gamma mRNA (PPARγ; [3]): 88.2 percentage of control; GLUT4 mRNA (Glut4; [3]): 103.6 percentage of control; HSL mRNA (HSL; [3]): 81.8 percentage of control
6 | 327969 (antisense eT*eG*eT*eG*eA*eG*eT*eT*e[5mC]*eT*eA*e[5mC]*e[5mC]*eA*eT*eT*eG*e[5mC]*e[5mC]*eA*eA*eA) [compound 327969] | 34 percentage of untreated control (UTC) | 44 percentage of untreated control (UTC) | 67 percentage of untreated control (UTC) | 36 percentage of untreated control (UTC) | 45 percentage of untreated control (UTC) | TG (triglyceride accumulation) (adipocytes; [4]): 46.0 percentage of control; AP2 mRNA (aP2; [4]): 59.8 percentage of control; PPAR gamma mRNA (PPARγ; [4]): 69.2 percentage of control; GLUT4 mRNA (Glut4; [4]): 60.6 percentage of control; HSL mRNA (HSL; [4]): 66.4 percentage of control
7 | 344611 (ACAUUUUUCGUUAUUGCUCUUGA; anti-miR; all 2'-MOE, all phosphorothioate, methylation of C and T or U not given here) [compound 344611] | 43 percentage of untreated control (UTC) | 34 percentage of untreated control (UTC) | 34 percentage of untreated control (UTC) | 3 percentage of untreated control (UTC) | 31 percentage of untreated control (UTC) | –
8 | 328091 (antisense eG*e[5mC]*eT*eG*e[5mC]*e[5mC]*eG*eT*eA*eT*eA*eT*eG*eT*eG*eA*eT*eG*eT*e[5mC]*eA) [compound 328091] | 48 percentage of untreated control (UTC) | 46 percentage of untreated control (UTC) | 85 percentage of untreated control (UTC) | 26 percentage of untreated control (UTC) | 40 percentage of untreated control (UTC) | –
9 | 344269 (antisense UAACCGAUUUCAAAUGGUGCUA; all 2'-MOE, all phosphorothioate, methylation of C and T or U not given here) [compound 344269] | 42 percentage of untreated control (UTC) | 41 percentage of untreated control (UTC) | 48 percentage of untreated control (UTC) | 28 percentage of untreated control (UTC) | 35 percentage of untreated control (UTC) | –
10 | 327970 (antisense eA*e[5mC]*eA*eA*eA*eG*eT*eT*e[5mC]*eT*eG*eT*eA*eG*eT*eG*e[5mC]*eA*e[5mC]*eT*eG*eA) [compound 327970] | 48 percentage of untreated control (UTC) | 29 percentage of untreated control (UTC) | 46 percentage of untreated control (UTC) | 27 percentage of untreated control (UTC) | 25 percentage of untreated control (UTC) | –
11 | 346691 (GCAGAAGCAUUUCCACACAC; all 2'-MOE, all phosphorothioate, methylation of C and T or U not given here) [compound 346691] | 56 percentage of untreated control (UTC) | 69 percentage of untreated control (UTC) | 79 percentage of untreated control (UTC) | 64 percentage of untreated control (UTC) | 69 percentage of untreated control (UTC) | –
12 | 344342 (AUGCUUUUUGGGGUAAGGGCUU; anti-miR; all 2'-MOE, all phosphorothioate, methylation of C and T or U not given here) [compound 344342] | 88 percentage of untreated control (UTC) | 88 percentage of untreated control (UTC) | 83 percentage of untreated control (UTC) | 71 percentage of untreated control (UTC) | 87 percentage of untreated control (UTC) | –
13 | 344615 (UCAACAAAAUCACUGAUGCUGGA; anti-miR; all 2'-MOE, all phosphorothioate, methylation of C and T or U not given here) [compound 344615] | 149 percentage of untreated control (UTC) | 166 percentage of untreated control (UTC) | 144 percentage of untreated control (UTC) | 145 percentage of untreated control (UTC) | 154 percentage of untreated control (UTC) | –
14 | 328113 (antisense e[5mC]*eA*eA*eA*eA*eA*eT*eT*eA*eT*e[5mC]*eA*eG*e[5mC]*e[5mC]*eA*eG*eT*eT*eT*eA) [compound 328113] | 74 percentage of untreated control (UTC) | 87 percentage of untreated control (UTC) | 85 percentage of untreated control (UTC) | 78 percentage of untreated control (UTC) | 83 percentage of untreated control (UTC) | TG (triglyceride accumulation) (adipocytes; [4]): 80.8 percentage of control; AP2 mRNA (aP2; [4]): 84.5 percentage of control; PPAR gamma mRNA (PPARγ; [4]): 93.8 percentage of control; GLUT4 mRNA (Glut4; [4]): 99.9 percentage of control; HSL mRNA (HSL; [4]): 90.6 percentage of control
15 | 346687 (AGCAAGCCCAGACCGCAAAAAG; all 2'-MOE, all phosphorothioate, methylation of C not given here) [compound 346687] | 55 percentage of untreated control (UTC) | 56 percentage of untreated control (UTC) | 60 percentage of untreated control (UTC) | 35 percentage of untreated control (UTC) | 53 percentage of untreated control (UTC) | –
